From ChEMBL document CHEMBL3091350, “Synthesis and evaluation of the antimalarial, anticancer, and caspase 3 activities of tetraoxane dimers” (Bioorg Med Chem, 2013)
pIC50: −log10 of the molar value. The source made the active and inactive calls. The calls are words filed in the database; no cut-off is given here.

What was measured:
[1] = system: Plasmodium falciparum; test: Antimalarial activity against chloroquine-sensitive Plasmodium falciparum 3D7; format: functional, organism-based
[2] = system: Plasmodium falciparum; test: Antimalarial activity against chloroquine-sensitive Plasmodium falciparum 3D7 assessed as parasite growth inhibition after 48 hrs by SYBR green-1 dye-based fluorescence assay; format: functional, organism-based; conditions: 3D7, 48 h
[3] = system: Plasmodium berghei; test: Antimalarial activity against Plasmodium berghei ANKA infected in mouse assessed as inhibition of parasitemia at 30 mg/kg, po administered for 3 days post-infection measured on day 4 by Giemsa staining relative to control; format: functional
[4] = system: Plasmodium berghei; test: Antimalarial activity against Plasmodium berghei ANKA infected in mouse assessed as inhibition of parasitemia at 3 mg/kg, po administered for 3 days post-infection measured on day 4 by Giemsa staining relative to control; format: functional
[5] = system: Plasmodium berghei; test: Antimalarial activity against Plasmodium berghei ANKA infected in po dosed mouse assessed as inhibition of parasitemia administered for 3 days post-infection measured on day 4 by Giemsa staining; format: functional
[6] = system: Plasmodium berghei; test: Antimalarial activity against Plasmodium berghei ANKA infected in mouse assessed as inhibition of parasitemia at 10 mg/kg, po administered for 3 days post-infection measured on day 4 by Giemsa staining relative to control; format: functional
[7] = system: Plasmodium berghei; test: Antimalarial activity against Plasmodium berghei ANKA infected in mouse assessed as inhibition of parasitemia at 1 mg/kg, po administered for 3 days post-infection measured on day 4 by Giemsa staining relative to control; format: functional
[8] = Cytotoxicity against human HT29-AK cells assessed as cell viability after 24 hrs by MTT assay; format: functional, cell-based
[9] = system: HL-60; test: Cytotoxicity against human HL60 cells assessed as cell viability after 24 hrs by MTT assay; format: functional, cell-based; conditions: HL-60, 24 h
[10] = system: KB; test: Cytotoxicity against human KB cells assessed as cell viability after 24 hrs by MTT assay; format: functional, cell-based
[11] = system: Plasmodium falciparum; test: Antimalarial activity against chloroquine-resistant Plasmodium falciparum K1 assessed as parasite growth inhibition after 48 hrs by SYBR green-1 dye-based fluorescence assay; format: functional, organism-based; conditions: K1, 48 h
[12] = Therapeutic index, ratio of IC50 for human KB cells to IC50 for chloroquine-resistant Plasmodium falciparum K1; format: cell-based; conditions: read-out: Ratio IC50
[13] = system: HL-60; test: Induction of apoptosis in human HL60 cells assessed as activation of caspase-3 activity at 0.2 to 0.6 uM after 24 hrs by flow cytometric analysis; format: functional, cell-based
[14] = system: HL-60; test: Induction of apoptosis in human HL60 cells assessed as activation of caspase-3 activity at 9.4 to 28.2 uM after 24 hrs by flow cytometric analysis; format: functional, cell-based
[15] = system: HL-60; test: Induction of apoptosis in human HL60 cells assessed as activation of caspase-3 activity at 10.1 to 30.3 uM after 24 hrs by flow cytometric analysis; format: functional, cell-based

SMILES | pIC50 [2] | pIC50 [8] | pIC50 [9] | pIC50 [10] | pIC50 [11] | selectivity ratio [12] | other results
CN1CCN(C2CCN(C(=O)CC3CCC4(CC3)OOC3(OO4)C4CC5CC(C4)CC3C5)CC2)CC1 (stereo unspecified) | – | – | – | – | – | – | pIC50 [1]: 9.05
O=C(CC1CCC2(CC1)OOC1(CCCCC1)OO2)NCCCNC(=O)CC1CCC2(CC1)OOC1(CCCCC1)OO2 | 7.67 | – | – | – | – | – | –
O=C(CC1CCC2(CC1)OOC1(CCCCC1)OO2)NCCCN1CCN(CCCNC(=O)CC2CCC3(CC2)OOC2(CCCCC2)OO3)CC1 | 7.33 | – | – | – | – | – | inhibition in vivo at 30 mg/kg [3]: 63.9%; inhibition in vivo at 3 mg/kg [4]: 46.1%; ED50 [5]: 6.4 mg/kg; inhibition in vivo at 10 mg/kg [6]: 54.3%; inhibition in vivo at 1 mg/kg [7]: 29.9%
CC1(CCC(=O)NCc2cccc(CNC(=O)CCC3(C)OOC4(CCCCC4)OO3)c2)OOC2(CCCCC2)OO1 (stereo unspecified) | 6.38 | 4.48 | 4.46 | 4.20 | 6.87 | 452 | –
CC1(CCC(=O)NCCCN2CCN(CCCNC(=O)CCC3(C)OOC4(CCCCC4)OO3)CC2)OOC2(CCCCC2)OO1 (stereo unspecified) | 7.32 | – | – | 4.60 | 6.21 | 40.8 | inhibition in vivo at 30 mg/kg [3]: 33.2%; inhibition in vivo at 3 mg/kg [4]: 22.3%; ED50 [5]: > 30 mg/kg; inhibition in vivo at 10 mg/kg [6]: 21.4%; inhibition in vivo at 1 mg/kg [7]: 2.1%
O=C(CC1CCC2(CC1)OOC1(OO2)C2CC3CC(C2)CC1C3)Nc1ccc(NC(=O)CC2CCC3(CC2)OOC2(OO3)C3CC4CC(C3)CC2C4)cc1 (stereo unspecified) | 7.23 | 4.11 | < 4.00 | – | – | – | –
O=C(CC1CCC2(CC1)OOC1(OO2)C2CC3CC(C2)CC1C3)NCCNC(=O)CC1CCC2(CC1)OOC1(OO2)C2CC3CC(C2)CC1C3 (stereo unspecified) | 7.77 | – | – | 4.20 | 8.05 | 7040 | –
C[C@H]1[C@@H](O)O[C@@H]2O[C@@]3(C)CC[C@H]4[C@H](C)CC[C@@H]1[C@@]24OO3 [ARTENIMOL] | 8.46 | 4.18 | 6.40 | – | – | – | Activity [13]: Active
O=C(CC1CCC2(CC1)OOC1(OO2)C2CC3CC(C2)CC1C3)NCc1cccc(CNC(=O)CC2CCC3(CC2)OOC2(OO3)C3CC4CC(C3)CC2C4)c1 (stereo unspecified) | 8.40 | 4.04 | 4.73 | – | – | – | Activity [14]: Active
CCN(CC)CCCC(C)Nc1ccnc2cc(Cl)ccc12 (stereo unspecified) [CHLOROQUINE] | – | – | – | 4.01 | – | – | –
CC1(CCC(=O)Nc2cccc(N)c2)OOC2(CCCCC2)OO1 | 6.99 | 4.12 | 4.51 | – | – | – | –
O=C(CC1CCC2(CC1)OOC1(OO2)C2CC3CC(C2)CC1C3)Nc1cccc(NC(=O)CC2CCC3(CC2)OOC2(OO3)C3CC4CC(C3)CC2C4)c1 (stereo unspecified) | 7.24 | 4.03 | < 4.00 | 3.87 | 6.99 | 1320 | –
O=C(CC1CCC2(CC1)OOC1(OO2)C2CC3CC(C2)CC1C3)NCCCN1CCN(CCCNC(=O)CC2CCC3(CC2)OOC2(OO3)C3CC4CC(C3)CC2C4)CC1 (stereo unspecified) | 8.46 | – | – | – | – | – | inhibition in vivo at 30 mg/kg [3]: 64.5%; inhibition in vivo at 3 mg/kg [4]: 43.2%; ED50 [5]: 7.7 mg/kg; inhibition in vivo at 10 mg/kg [6]: 46.2%; inhibition in vivo at 1 mg/kg [7]: 36.1%
C[C@H]1[C@H](OC(=O)CCC(=O)O)O[C@@H]2O[C@@]3(C)CC[C@H]4[C@H](C)CC[C@@H]1[C@@]24OO3 [ARTESUNATE] | 8.80 | 4.41 | 5.70 | – | – | – | inhibition in vivo at 30 mg/kg [3]: 99.7%; inhibition in vivo at 3 mg/kg [4]: 62.4%; ED50 [5]: 1.6 mg/kg; inhibition in vivo at 10 mg/kg [6]: 95.2%; inhibition in vivo at 1 mg/kg [7]: 38.5%
O=C(CC1CCC2(CC1)OOC1(OO2)C2CC3CC(C2)CC1C3)NCCCNC(=O)CC1CCC2(CC1)OOC1(OO2)C2CC3CC(C2)CC1C3 (stereo unspecified) | 8.33 | 4.64 | 4.69 | 4.21 | 7.61 | 2530 | Activity [15]: Active
O=C(CC1CCC2(CC1)OOC1(CCCCC1)OO2)NCc1cccc(CNC(=O)CC2CCC3(CC2)OOC2(CCCCC2)OO3)c1 | 7.41 | – | – | – | – | – | –
COc1cc([C@@H]2c3cc4c(cc3[C@H](O)[C@H]3COC(=O)[C@H]23)OCO4)cc(OC)c1OC [PODOFILOX] | – | – | – | 7.93 | – | – | –
O=C(CC1CCC2(CC1)OOC1(CCCCC1)OO2)NCCCCNC(=O)CC1CCC2(CC1)OOC1(CCCCC1)OO2 | 7.54 | – | – | – | – | – | –
O=C(CC1CCC2(CC1)OOC1(OO2)C2CC3CC(C2)CC1C3)NCCCCNC(=O)CC1CCC2(CC1)OOC1(OO2)C2CC3CC(C2)CC1C3 (stereo unspecified) | 7.95 | – | – | 5.30 | 8.57 | 1870 | inhibition in vivo at 30 mg/kg [3]: 54.8%; inhibition in vivo at 3 mg/kg [4]: 27.5%; ED50 [5]: 16.1 mg/kg; inhibition in vivo at 10 mg/kg [6]: 49.6%; inhibition in vivo at 1 mg/kg [7]: 22.1%
